Assay results from patent US7649013B2, “Methods of protecting against radiation injury” (priority 2003, dated 2010).
“Also recorded” adds a separate entry of the source.

Legend:
[1] = test system: E2F1 in human colon cancer cells (SW480); test: E2F1 level in whole cell extracts, SDS/PAGE and enhanced chemiluminescence, colon cancer cells; format: cell-based; conditions: SW480, 2 μM, 20 minute to 4 hour exposures
Procedure: Human colon cancer cells (SW480) and normal colon cells (NCM460) are treated with β-lapachone at a concentration of 2 μM and are harvested after 20 minute, 1 hour, 2 hour, or 4 hour exposures. Whole cell extracts are prepared and resolved by SDS/PAGE. An enhanced chemiluminescence assay system (Amersham Pharmacia) is used to determine the E2F1 level. Monoclonal antibody against […] is obtained from Santa Cruz Biotechnology (Santa Cruz, Calif.). […] Elevation of E2F1 following exposure to β-lapachone persists through cell death in cancer cells.

[2] = test system: BRCA1 in human colon cancer cells (SW480); test: Relative expression of cell cycle checkpoint genes, Human Cell-cycle Checkpoint GEArray Kit; format: cell-based; conditions: SW480, 2 μM, 4 hours, vs carrier alone
Procedure: Exponentially growing human colon cancer cells (SW480) are treated with β-lapachone at 2 μM, or carrier alone control, for 4 hours. Total RNA is prepared by Trizol reagents. Relative expression levels of multiple genes involved in cell cycle checkpoint are determined with the Human Cell-cycle Checkpoint GEArray Kit (SuperArray Inc. Bethesda, Md.) (FIG. 3). The up-regulation of the E2F1 target BRCA1 in β-lapachone treated cancer cells is another indication of E2F1 activation. BRCA1 is a tumor suppressor involved in many roles within the cell including DNA repair.

[3] = test system: C57BL/6J inbred strain female mice; test: Survival after 8 Gy whole body γ-irradiation, intraperitoneal dosing 4 hours before or after (Example 4); format: in vivo; conditions: for No. of animals surviving at 20 days post-irradiation: 4 animals; for Death rate (%): 20 days
Procedure: (§1) β-lapachone is prepared at 10 mg/ml in 40% hydroxypropyl-beta-cyclodextrin (HPBCD).
(§2) C57BL/6J inbred strain female mice (4-5 weeks old) are used. Animals are maintained in a climate-controlled animal facility.
Animals are injected with different concentrations of β-lapachone (20 and 40 mg/kg body weight) intraperitoneally 4 hours before or after irradiation.
Whole body irradiation of animals with 8 Gy of γ-rays is carried out in air at room temperature in a gamma chamber (Gammacell 40 Exactor), at a dose-rate of 1.05 Gy/min. This radiation dose is within the range of equivalent human exposures predicted in many scenarios of radiologic or nuclear terrorist attack.
Mice are divided into the following groups (each Group comprises four mice receiving identical treatment):
Group II: Mice are injected with β-lapachone 20 mg/kg body weight 4 hours before radiation.
(§3) Group III: Mice are injected with β-lapachone 40 mg/kg body weight 4 hours before radiation.
Group IV: Mice are injected with β-lapachone 20 mg/kg body weight 4 hours after radiation.
Group V: Mice are injected with β-lapachone 40 mg/kg body weight 4 hours after radiation.
Group VI: Mice are injected with amifostine 10 mg/kg body weight 4 hours before radiation.
Animals are irradiated with 8 Gy at 1.05 Gy/min dose-rate. After irradiation mice are returned to their cage and observed on a regular basis. Exposure to γ-rays causes lethality in animals. Importantly, treatment with β-lapachone, especially at a level of 40 mg/kg prior to irradiation, diminishes the death rate.

[4] = test system: C57BL/6J inbred strain female mice; test: Survival after 8 Gy whole body γ-irradiation, intraperitoneal 40 mg/kg at varying time points (Example 5); format: in vivo; conditions: for No. of animals surviving at 68 days post-irradiation: 8 animals; for Death rate (%): 68 days
Procedure: as §1, §2
The animals are injected intraperitoneally with β-lapachone (40 mg/kg body weight) either 0.5 hour, 1 hour, or 4 hours before irradiation, or 10 minutes or 1 hour after irradiation.
Whole body irradiation of animals with 8 Gy of γ-rays is carried out in air at room temperature in a gamma chamber (Gammacell 40 Exactor) with a dose-rate of 1.05 Gy/min. This radiation dose is within the range of equivalent human exposures predicted in many scenarios of radiologic or nuclear terrorist attack.
Mice are divided in following groups (each Group comprises eight mice receiving identical treatment):
as §3
Group IV: Mice are injected with β-lapachone 40 mg/kg body weight 1 hour before radiation.
Group V: Mice are injected with β-lapachone 40 mg/kg body weight 0.5 hours before radiation.
Group VI: Mice are injected with β-lapachone 40 mg/kg body weight 10 minutes after radiation.
Group VII: Mice are injected with β-lapachone 40 mg/kg body weight 1 hour after radiation.
Animals are irradiated with 8 Gy at 1.05 Gy/min dose-rate. After irradiation mice are returned to their cage and observed on a regular basis. Exposure to γ-rays causes lethality in animals. Importantly, treatment with β-lapachone, especially at a level of 40 mg/kg either 4, 1, or 0.5 hours prior to irradiation, diminishes the death rate.

[5] = test system: C57BL/6J inbred strain female mice; test: Thymic cellularity after whole body irradiation, hematoxylin-eosin sections (Example 7a); format: in vivo; conditions: 40 mg/kg i.p. 0.5 hour before 8 Gy; day five
Procedure: β-lapachone is prepared at 10 mg/ml in 40% hydroxypropyl-beta-cyclodextrin (HPBCD). C57BL/6J inbred strain female mice (4-5 weeks old) are organized into three groups of six mice each: Group I mice receive no radiation, no β-lapachone, and no carrier; Group II mice receive radiation and are injected with carrier (40% HPBCD 4 ml/kg body weight); and Group III mice are injected intraperitoneally at 0.5 hour before irradiation with β-lapachone (40 mg/kg body weight). Whole body irradiation of animals with 8 Gy of γ-rays is carried out in air at room temperature in a gamma chamber (Gammacell 40 Exactor), with a dose-rate of 1.05 Gy/min. This radiation dose is within the range of equivalent human exposures predicted in many scenarios of radiologic or nuclear terrorist attack. Following irradiation, animals are maintained in a climate-controlled animal facility. Three mice in each of Groups I, II, and III are sacrificed on day five following irradiation, and an analysis of thymic cellularity is performed for each. The remaining mice are sacrificed on day eight following irradiation, and an analysis of thymic cellularity is performed for each. Thymic cellularity is qualitatively assessed in sections stained with hematoxylin-eosin following standard procedures.

rats = conditions: p.o. daily for one month; cited from earlier work
[6] = 20 mg/kg i.p. 4 hr after Radiation 8 Gy
[7] = 20 mg/kg i.p. 4 hr before Radiation 8 Gy
[8] = 40 mg/kg i.p. 4 hr before Radiation 8 Gy
[9] = Radiation 8 Gy 4 hr → 20 mg/kg as printed (second such line of Table 1)
[10] = 40 mg/kg i.p. 10 min after Radiation 8 Gy
[11] = 40 mg/kg i.p. 0.5 hr before Radiation 8 Gy
[12] = 40 mg/kg i.p. 1 hr after Radiation 8 Gy
[13] = 40 mg/kg i.p. 1 hr before Radiation 8 Gy

CC1(C)CCC2=C(O1)c1ccccc1C(=O)C2=O [β-lapachone, 3,4-dihydro-2,2-dimethyl-2H-naphtho[1,2-b]pyran-5,6-dione]
E2F1 level [1]: Elevation of E2F1 is seen in tumor cells; also recorded: induces increased expression of E2F1
BRCA1 relative expression level [2]: induces increased expression; also recorded: up-regulation
Median survival time [3, 6]: 14 days
No. of animals surviving at 20 days post-irradiation [3, 6]: 1
Death rate (%) [3, 6]: 75%
Median survival time [3, 7]: 13.5 days
No. of animals surviving at 20 days post-irradiation [3, 7]: 0
Death rate (%) [3, 7]: 100%
Median survival time ([3]; 40 mg/kg i.p. 4 hr after Radiation 8 Gy): 16.4 days
Median survival time [3, 8]: 25 days
No. of animals surviving at 20 days post-irradiation [3, 8]: 3
Death rate (%) [3, 8]: 25%
Temporal survival pattern (FIG. 5) ([3]; 20, 40 mg/kg i.p., 4 hours before or after 8 Gy, vs control decline at 10-14 days): delayed this early decline in survival
No. of animals surviving at 20 days post-irradiation [3, 9]: 0
Death rate (%) [3, 9]: 100%
Median survival time [4, 10]: 14 days
No. of animals surviving at 68 days post-irradiation [4, 10]: 0
Death rate (%) [4, 10]: 100%
Median survival time ([4]; 40 mg/kg i.p. 0.5 hr before Radiation 8 Gy (no death)): >68 days
No. of animals surviving at 68 days post-irradiation [4, 11]: 8
Death rate (%) [4, 11]: 0%
Median survival time [4, 12]: 16 days
No. of animals surviving at 68 days post-irradiation [4, 12]: 0
Death rate (%) [4, 12]: 100%
Median survival time [4, 13]: 68 days
No. of animals surviving at 68 days post-irradiation [4, 13]: 4
Death rate (%) [4, 13]: 50%
Median survival time [4, 8]: 21 days
No. of animals surviving at 68 days post-irradiation [4, 8]: 2
Death rate (%) [4, 8]: 75%
Temporal survival pattern (FIG. 6) ([4]; 40 mg/kg i.p. at 0.5, 1.0 or four hours prior to 8 Gy, vs control decline at 16-20 days): delayed this early decline in survival
Thymic cellularity in thymic sections (FIG. 8) [5]: preserves thymic cellularity
Maximum tolerated dose (rats): 200 mg/kg
